# Experimental data: patent US20240216369A1, “THE USE OF A SPLICING MODULATOR FOR A TREATMENT SLOWING PROGRESSION OF HUNTINGTON'S DISEASE” (Novartis AG, priority 2019, published 2024)
# What was measured:
# mHTT = test: Mutant and total HTT multiplex HTRF assay in Q48 HTT human embryonic stem cell line: mHTT; assay type: cell-based; conditions: Q48 HTT hESC, 48 hours
# Protocol: (§1) The multiplex assay is performed in human embryonic stem cells (hESCs) which have been derived by Genea Biocells from human blastocysts of HD donors. Cells are plated at a density of 10,000 cells/well into 384-well collagen coated plates and left to adhere for 24 hours, compounds 1 to 82 are then added to cells and incubated for 48 hours (37° C., 5% CO2), cells are then lysed and the contents split into a black 384-well plate.
# (§2) The black plates have a combination of HTRF labeled monoclonal antibodies added which recognize discrete areas of the HTT protein, the 2B7-Tb “donor” antibody (0.2 ng/well) recognizes a sequence at the N-terminus of the protein, an MW1-Alexa488 “acceptor 1” antibody (30 ng/well) recognizes an area in the polyQ region, whereas a MAB2166-d2 “acceptor 2” antibody (6 ng/well) recognizes a sequence beyond the polyQ region. The 2B7 antibody was obtained from Coriell (CH02024), the MW1 antibody from Millipore (MABN2427), and the MAB2166 antibody from Millipore (1HU-4C8).
# (§3) These detection reagents are incubated with the cell lysate at room temperature for 4-6 hours before having their fluorescence quantified at 615 nm (donor) and 535 nm and 665 nm (acceptor 1 and 2 respectively). The donor/acceptor ratio between these signals indicates the relative quantities of mHTT and tHTT proteins. As shown in the Table 1, compounds 1 to 82 as described therein and in Table 2, had the following pIC50 values.
# tHTT = test: Mutant and total HTT multiplex HTRF assay in Q48 HTT human embryonic stem cell line: tHTT; assay type: cell-based; conditions: Q48 HTT hESC, 48 hours
# Protocol: as §1, §2, §3
SMILES,Rating (based on mHTT potency) (mHTT),mHTT pIC50 (mHTT),tHTT pIC50 (tHTT)
"CN(c1ccc(-c2ccc(-n3cccn3)cc2O)nn1)C1CC(C)(C)NC(C)(C)C1 [Compound 19, 2-(6-(methyl(2,2,6,6-tetramethylpiperidin-4-yl)amino)pyridazin-3-yl)-5-(1H-pyrazol-1-yl)phenol]",**** (a pIC50 value between 7.0 and 7.5 is indicated by four stars (****)),7.2235,7.178
"COc1cc(-c2cnn(C)c2)cc(O)c1-c1ccc(N(C)C2CC(C)(C)NC(C)(C)C2)nn1 [Compound 20, 3-methoxy-2-(6-(methyl(2,2,6,6-tetramethylpiperidin-4-yl)amino)pyridazin-3-yl)-5-(1-methyl-1H-pyrazol-4-yl)phenol]",**** (a pIC50 value between 7.0 and 7.5 is indicated by four stars (****)),7.22,7.106
"CN(c1ccc(-c2cc3ccc(C(N)=O)nc3cc2O)nn1)C1CC(C)(C)NC(C)(C)C1 [Compound 21, 7-hydroxy-6-(6-(methyl(2,2,6,6-tetramethylpiperidin-4-yl)amino)pyridazin-3-yl)quinoline-2-carboxamide]",**** (a pIC50 value between 7.0 and 7.5 is indicated by four stars (****)),7.203,7.221
"CN(c1nnc(-c2cc(F)c(-c3cn[nH]c3)cc2Cl)s1)C1CC(C)(C)NC(C)(C)C1 [Compound 22, 5-(2-chloro-5-fluoro-4-(1H-pyrazol-4-yl)phenyl)-N-methyl-N-(2,2,6,6-tetramethylpiperidin-4-yl)-1,3,4-thiadiazol-2-amine]",**** (a pIC50 value between 7.0 and 7.5 is indicated by four stars (****)),7.1945,7.1125
"CN(c1ccc(-c2c(O)cc(-c3ccn(C)c(=O)c3)cc2F)nn1)C1CC(C)(C)NC(C)(C)C1 [Compound 23, 4-(3-fluoro-5-hydroxy-4-(6-(methyl(2,2,6,6-tetramethylpiperidin-4-yl)amino)pyridazin-3-yl)phenyl)-1-methylpyridin-2(1H)-one]",**** (a pIC50 value between 7.0 and 7.5 is indicated by four stars (****)),7.1895,7.17
"CCn1ccc2cc(O)c(-c3ccc(OC4CC(C)(C)NC(C)(C)C4)nn3)cc2c1=O [Compound 24, 2-ethyl-6-hydroxy-7-(6-((2,2,6,6-tetramethylpiperidin-4-yl)oxy)pyridazin-3-yl)isoquinolin-1(2H)-one]",**** (a pIC50 value between 7.0 and 7.5 is indicated by four stars (****)),7.186,7.168
"CN(c1ccc(-c2cc3c(O)nccc3cc2O)nn1)C1CC(C)(C)NC(C)(C)C1 [Compound 25, 7-(6-(methyl(2,2,6,6-tetramethylpiperidin-4-yl)amino)pyridazin-3-yl)isoquinoline-1,6-diol]",**** (a pIC50 value between 7.0 and 7.5 is indicated by four stars (****)),7.161,7.128
"CN(c1ccc(-c2ccc(-c3ccn(C4CC4)c(=O)c3)cc2O)nn1)C1CC(C)(C)NC(C)(C)C1 [Compound 26, 1-cyclopropyl-4-(3-hydroxy-4-(6-(methyl(2,2,6,6-tetramethylpiperidin-4-yl)amino)pyridazin-3-yl)phenyl)pyridin-2(1H)-one]",**** (a pIC50 value between 7.0 and 7.5 is indicated by four stars (****)),7.1215,7.0435
"Oc1cc(-c2cn[nH]c2)cc(F)c1-c1nnc(N2C[C@H]3CNC[C@H]3C2)s1 [Compound 27, 3-fluoro-2-(5-((3aR,6aS)-hexahydropyrrolo[3,4-c]pyrrol-2(1H)-yl)-1,3,4-thiadiazol-2-yl)-5-(1H-pyrazol-4-yl)phenol]",**** (a pIC50 value between 7.0 and 7.5 is indicated by four stars (****)),7.1125,7.085
"CN(c1ccc(-c2cc3cnn(C)c3cc2O)nn1)C1CC(C)(C)NC(C)(C)C1 [Compound 28, 1-methyl-5-(6-(methyl(2,2,6,6-tetramethylpiperidin-4-yl)amino)pyridazin-3-yl)-1H-indazol-6-ol]",**** (a pIC50 value between 7.0 and 7.5 is indicated by four stars (****)),7.111,7.1045
"Cn1ccc(-c2ccc(-c3ccc(OC4CC(C)(C)NC(C)(C)C4)nn3)c(O)c2)cc1=O [Compound 29, 4-(3-hydroxy-4-(6-((2,2,6,6-tetramethylpiperidin-4-yl)oxy)pyridazin-3-yl)phenyl)-1-methylpyridin-2(1H)-one]",**** (a pIC50 value between 7.0 and 7.5 is indicated by four stars (****)),7.0855,7.074
"Cc1cc2cc(O)c(-c3ccc(N(C)C4CC(C)(C)NC(C)(C)C4)nn3)cc2cn1 [Compound 30, 3-methyl-7-(6-(methyl(2,2,6,6-tetramethylpiperidin-4-yl)amino)pyridazin-3-yl)isoquinolin-6-ol]",**** (a pIC50 value between 7.0 and 7.5 is indicated by four stars (****)),7.08,7.0835
"CN(c1ccc(-c2cc3ncccc3cc2O)nn1)C1CC(C)(C)NC(C)(C)C1 [Compound 31, 7-(6-(methyl(2,2,6,6-tetramethylpiperidin-4-yl)amino)pyridazin-3-yl)quinolin-6-ol]",**** (a pIC50 value between 7.0 and 7.5 is indicated by four stars (****)),7.0275,7.0015
"CN1C[C@@H]2CN(c3ccc(-c4ccc(-c5cn[nH]c5)cc4O)nn3)C[C@@H]2C1 [Compound 32, 2-(6-((3aR,6aS)-5-methylhexahydropyrrolo[3,4-c]pyrrol-2(1H)-yl)pyridazin-3-yl)-5-(1H-pyrazol-4-yl)phenol]",**** (a pIC50 value between 7.0 and 7.5 is indicated by four stars (****)),7.0085,7.0625
"CN(c1ccc(-c2cc3c(cc2O)-c2nc(N)sc2C3)nn1)C1CC(C)(C)NC(C)(C)C1 [Compound 33, 2-amino-6-(6-(methyl(2,2,6,6-tetramethylpiperidin-4-yl)amino)pyridazin-3-yl)-8H-indeno[1,2-d]thiazol-5-ol]",**** (a pIC50 value between 7.0 and 7.5 is indicated by four stars (****)),7.0085,7.001
"CC1(C)CC(Oc2ccc(-c3ccc(-n4cccn4)cc3O)nn2)CC(C)(C)N1 [Compound 34, 5-(1H-pyrazol-1-yl)-2-(6-(2,2,6,6-tetramethylpiperidin-4-yloxy)pyridazin-3-yl)phenol]",**** (a pIC50 value between 7.0 and 7.5 is indicated by four stars (****)),7.004,6.9475
"Cc1cc(-c2ccc(-c3ccc(N(C)C4CC(C)(C)NC(C)(C)C4)nn3)c(O)c2)ccn1 [Compound 35, 2-(6-(methyl(2,2,6,6-tetramethylpiperidin-4-yl)amino)pyridazin-3-yl)-5-(2-methylpyridin-4-yl)phenol]",**** (a pIC50 value between 7.0 and 7.5 is indicated by four stars (****)),7.003,6.877
"Oc1cc(-c2cn[nH]c2)cc(F)c1-c1nnc(N2CC3(CCNCC3)C2)s1 [Compound 36, 2-(5-(2,7-diazaspiro[3.5]nonan-2-yl)-1,3,4-thiadiazol-2-yl)-3-fluoro-5-(1H-pyrazol-4-yl)phenol]",*** (a pIC50 value between 6.5 and 7.0 is indicated by three stars (***)),6.996,6.827
"CC1(C)CC(Oc2ccc(-c3cc4ccc(O)cc4cc3O)nn2)CC(C)(C)N1 [Compound 37, 3-(6-(2,2,6,6-tetramethylpiperidin-4-yloxy)pyridazin-3-yl)naphthalene-2,7-diol]",*** (a pIC50 value between 6.5 and 7.0 is indicated by three stars (***)),6.98,7.121
"Cc1cnc2cc(-c3ccc(N(C)C4CC(C)(C)NC(C)(C)C4)nn3)c(O)cc2n1 [Compound 38, 3-methyl-7-(6-(methyl(2,2,6,6-tetramethylpiperidin-4-yl)amino)pyridazin-3-yl)quinoxalin-6-ol]",*** (a pIC50 value between 6.5 and 7.0 is indicated by three stars (***)),6.9735,7.0015
"CN(c1ccc(-c2cc3nccnc3cc2O)nn1)C1CC(C)(C)NC(C)(C)C1 [Compound 39, 7-(6-(methyl(2,2,6,6-tetramethylpiperidin-4-yl)amino)pyridazin-3-yl)quinoxalin-6-ol]",*** (a pIC50 value between 6.5 and 7.0 is indicated by three stars (***)),6.946,6.9105
"CN(c1ccc(-c2cc3cn(C)nc3cc2O)nn1)C1CC(C)(C)NC(C)(C)C1 [Compound 40, 2-methyl-5-(6-(methyl(2,2,6,6-tetramethylpiperidin-4-yl)amino)pyridazin-3-yl)-2H-indazol-6-ol]",*** (a pIC50 value between 6.5 and 7.0 is indicated by three stars (***)),6.927,6.994
